The test system of assay [1] is in vitro grown Mycobacteria (M. tuberculosis). As to the kind of experiment: QUM: Quantification of in vitro grown Mycobacteria (in vitro growth fluorescence assay). Type of assay: cell-based. The following applies: Mycobacterium tuberculosis; MIC, 80% bacterial growth inhibition; in vitro growth; read-out: QUM. The gist of the method: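 Mycobacterium tuberculosis grown in vitro was quantified by fluorescence across compound dose responses. MIC is defined as the minimum concentration producing 80% growth inhibition.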

In assay [2] the test system is M. tuberculosis drug sensitive strain (lab strain H37Rv). The assay can be described thus: MIC by the Alamar blue method, drug sensitive strain. Type of assay: cell-based. The following applies: Mycobacterium tuberculosis. Background: Alamar Blue is a resazurin reagent that responds to reducing activity.
In assay [3] the test system is M. tuberculosis inside the host macrophage. As to the kind of experiment: QIM: Quantification of Intracellular Mycobacteria (intracellular growth assay, phenotypic cell-based). The following applies: Mycobacterium tuberculosis; MIC, 80% bacterial growth inhibition; intracellular growth; read-out: QIM. An outline of the steps: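 Phenotypic high-content assay measuring M. tuberculosis multiplication inside host macrophages, run as dose response. MIC is the minimum compound concentration giving 80% bacterial growth inhibition.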

In assay [4] the test system is Mycobacterium tuberculosis H37Rv. The assay can be described thus: Kinetics of inhibition and bactericidal activity (CFU plating). Type of assay: cell-based. The settings on record: for colony forming unit (CFU) number (bactericidal activity): after incubation with various concentrations; for growth inhibition: reached around the same time as PA-824, 14 day period. The method, then: Mycobacterium tuberculosis H37Rv was incubated at an initial inoculum of 2×10^6 bacteria/ml in Middlebrook 7H9 media containing an increasing concentration of representative compound 47 or 54. Culture samples were collected over a 14 day period. Serial dilutions of the bacterial suspension were performed and plated on 7H 10 medium. Colonies were counted for the different dilutions after 3 weeks incubation at 37° C. under 5% CO2 and compared to that obtained for the DMSO negative and PA-824 positive controls. PA-824 (Stover et al., 2000) is a TB Alliance small chemical compound currently in phase II clinical trials for the treatment of tuberculosis. PA-824 possibly acts via generation of radicals having non-specific toxic effects.

The test system of the next assay is M. tuberculosis H37Rv. As to the kind of experiment: In vivo activity in a murine model of acute tuberculosis infection. On the set-up: species or system BalbC mice. The settings on record: 4 weeks of treatment. The method, then:
The effect of compounds 177 and 185 on the bacterial load of TB-infected mice was compared to that of the reference compound Isoniazid (INH). 8-week old female BalbC mice were infected with 6×10^5 M. tuberculosis H37Rv via intranasal instillation. Mice were sacrificed at day 1 to control the number of CFU in the lungs. In the acute model of infection, mice were treated for 4 weeks, starting at day 1. Compounds were freshly dissolved in a 0.5% methylcellulose solution and administered by oral gavage 5 times/week. Bacterial load was assessed in lungs and spleen after homogenizing the organs in 1×PBS. Serial dilutions of organs homogenates were spread on Middlebrook 7H11 plates and CFU were determined after 3 weeks incubation at 37° C. under 5% CO2.

Structures are written as SMILES. Values after ≈ are worked out from the molar mass of the structure shown.

This is an account of results in patent US8865734B2 (priority 2010, dated 2014).

As to `CCc1nc2ccccn2c1C(=O)NCc1ccc(-c2ccccc2)cc1` [Compound 47, N-(Biphenyl-4-ylmethyl)-2-ethylimidazo[1,2-a]pyridine-3-carboxamide], the MIC in assay [1] and in assay [3] was less than 1 µM throughout. Moreover, the MIC80 (as a rule, an inhibitory concentration at the 80% level, which refers to growth in some studies and to a panel of isolates in others) in assay [2] stood at 1.25 µM (≈ 0.444 µg/mL). In assay [4], the “colony forming unit (CFU) number (bactericidal activity)” value is on record as “decrease”. The molecule also displayed a growth inhibition in assay [4] of 100%.

Take `CCc1nc2ccccn2c1C(=O)NCc1ccc(Oc2ccccc2)cc1` [Compound 54, 2-Ethyl-N-(4-phenoxybenzyl)imidazo[1,2-a]pyridine-3-carboxamide]: the MIC in assay [1] and in assay [3] was less than 1 µM each time. Moreover, in assay [2], the MIC80 turned out to be 0.625 µM (≈ 0.232 µg/mL). Moreover, the “colony forming unit (CFU) number (bactericidal activity)” value in assay [4] is listed as “decrease”. The molecule further showed a growth inhibition in assay [4] of 100%.

In the case of `CCc1nc2ccc(Cl)cn2c1C(=O)NCc1ccc(Oc2ccc(OC(F)(F)F)cc2)cc1` [Compound 185, 6-Chloro-2-ethyl-N-(4-(4-(trifluoromethoxy)phenoxy)benzyl)imidazo[1,2-a]pyridine-3-carboxamide], the MIC in assay [1] was less than 1 µM. For the same molecule, the MIC in assay [3] was less than 1 µM. Moreover, in the assay with M. tuberculosis H37Rv (50 mg/kg orally), the “CFU in the spleen” value is listed as “No CFU were detected” and the “reduction of CFU in the lungs compared to untreated mice” value is recorded as roughly 2 log CFU.

With `NNC(=O)c1ccncc1` [INH, Isoniazid, reference compound], in assay [2], the MIC80 came to 1.25 µM (≈ 0.171 µg/mL). In the assay on M. tuberculosis H37Rv (25 mg/kg), the “CFU in the lungs” value is “No CFU were recovered” and the “CFU in the spleen” value is “No CFU were recovered”.

`COc1c(N2C[C@@H]3CCCN[C@@H]3C2)c(F)cc2c(=O)c(C(=O)O)cn(C3CC3)c12` [MFX, moxifloxacin, reference compound] yielded an MIC80 in assay [2] of 1.25 µM (≈ 0.502 µg/mL). That is a single-digit micromolar value.
